Converted amounts (≈) assume the structure as drawn. “Also recorded” adds a separate entry of the source. Like-named read-outs stand apart in the source and are kept apart here.
Legend:
[1] = SOS Chromotest ref 25; cited from earlier work
[2] = Aqueous solubility at different pHs; type: physicochemical; conditions: thermodynamic from solid, 25 °C for 4 h
Method: The compound was weighed (1 mg) and solubilized in phosphate-buffered saline (PBS, pH 7.4), HCl 0.1 M (pH 1.2), and NH4HCO3 0.1 M (pH 9.2) to a final concentration of 1 mg/mL. The solutions were kept under stirring (250 rpm) for 4h at 37 °C. The solutions were filtered ([…] PDVA filter) and analyzed by HPLC. DMSO solution 1 mg/mL was used as the control for 100% soluble.

[3] = Parallel artificial membrane permeability assay (PAMPA); type: in vitro ADME; conditions: pH 7.4, 5 h
Method: 5-FI was quantified by HPLC-MS after a period of incubation and separated into two fractions by a permeable lipidic membrane. The result is expressed in velocity units of permeation (cm/s). The lipidic membrane is previously prepared with specific activation solutions that create a hydrophobic surface, simulating the intestinal epithelial tissue. To the donor aqueous phase (pH 7.4), 100 μM compound is added. To the previously prepared membrane is added the receptor aqueous phase (pH 7.4), and the mixture is incubated for 5h at room temperature with both receptor and donor aqueous phases in contact, separated just by the membrane. The compound transported by passive diffusion is measured by taking an aliquot of receptor solution and analyzing it by HPLC-MS/MS.

[4] = Cellular viability (MTT and neutral red uptake), HepG2; type: cell-based; conditions: human, HepG2 cells; 72 h of exposure; MTT and neutral red assays
Method: (§1) To assess the selectivity and potential toxicity of 5-FI, the effects on the viability of both HepG2 and Vero mammalian cell lines were evaluated. Cell viability was measured after 72 h of incubation with concentrations of 2, 5, and 20 μM of the compound. […] Two methods were used to assess the cell integrity: the MTT assay, which evaluates mitochondrial viability, and the neutral red assay, which assesses lysosomal functionality.
(§2) To determine the cellular viability, the cells were incubated with the 5-fluoro-1H-indole compound with 3-(4,5-dimethylthiazol-2-yl)-2,5-diphenyl-2H-tetrazolium bromide (MTT)[29] and neutral red uptake (NRU)[30] methods. […] The formed formazan crystals were dissolved with 100 μL of DMSO, and the absorbance of this solution was measured at 595 nm using an EZ Read 400 microplate reader (Biochrom, Holliston, MA, USA). The absorbance of the formazan crystals, diluted with DMSO, was directly proportional to the number of live cells with active mitochondria, corresponding to their viability. The mean value of absorbance of control wells was taken as 100% viability, and the values of treated cells were calculated as the percentage of vehicle control containing 0.5% DMSO. […]

HepG2 cells = assay: as above; type: cell-based; conditions: 2, 5 and 20 μM, 72 h; MTT and neutral red; listed as 5-FI
Method: as §1, §2

[5] = In vivo absorption assay: plasma concentration after gavage; conditions: 400 mg/kg, mice
[6] = Chemical stability in H2O at 37 °C, open and closed system (volatility assay)
Vero cells = assay: Cellular viability (MTT and neutral red uptake), Vero; type: cell-based; conditions: 2, 5 and 20 μM, 72 h; MTT and neutral red; listed as 5-FI
Method: as §1, §2

[7] = as above; type: cell-based; conditions: African green monkey, Vero cells; 72 h of exposure; MTT and neutral red assays
Method: as §1, §2

[8] = Chemical stability at pH 1.2, 7.4 and 9.1; type: physicochemical; conditions: 37 °C for 24 h
Method: The compounds to be tested were prepared in a 100 μM solution and incubated at 37 °C for 24 h in three solutions representing the physiologically relevant pHs to drug administration: pH 1.2 (stomach), pH 7.4 (plasma), and pH 9.2 (intestinal tissue). The compounds were quantified by HPLC-MS/MS. The chemical stability experiments were carried out in triplicates to ensure reproducibility. The results were presented as percentage, comparing the signal at time zero of the assay, considering this measure 100%, with measurements after the incubation time. Alprenolol was used as the analytical control (data not shown). The results were presented as the percentage, comparing the signal at time zero of the assay (100%) with the signal produced by concentrations after the incubation period.

[9] = test system: Mycobacterium tuberculosis H37Rv Strain; assay: MIC by resazurin reduction microplate assay (REMA), H37Rv; type: cell-based; conditions: Mtb H37Rv, REMA
[10] = Metabolic stability in rat liver microsomes; type: in vitro ADME
Method: The compound was incubated at 37 °C in the concentration of 20 μM with rat liver microsomal fractions in PBS solution at pH 7.4 solution. As previously described,[31] rat liver microsomal fractions were seeded by centrifugation at 9.000 × g. To the supernatant containing the postmithocondrial with cytosolic and membrane-bound enzymes, 4 μM 5-FI was added and incubated at 37 °C. The interaction between the compound in the incubation mixture and the enzyme containing NADPH at 1 mg/mL concentration was measured by HPLC-MS/MS technique to determine the in vitro compound consumption by the microsomal fractions at 0, 5, 15, and 30 min reaction (incubation) time. The intrinsic compound clearance was taken as the half-life, and the disappearance was compared with the positive control, verapamil(2 μM).

Fc1ccc2[nH]ccc2c1 [Compound 1, 5-Fluoroindole]
genotoxicity [1]: does not exhibit genotoxicity
solubility at 4 h ([2]; pH 1.2, simulated gastric fluid, 0.1 M HCl, read-out: aqueous solubility pH 1.2): > 550 µM
solubility at 4 h ([2]; pH 9.1, aqueous buffer, 0.1 M NH4HCO3, read-out: aqueous solubility pH 9.1): 2.2 µM (≈ 0.297 µg/mL)
solubility at 4 h ([2]; phosphate-buffered saline, pH 7.4, aqueous buffer, PBS, read-out: aqueous solubility pH 7.4): 3.5 µM (≈ 0.473 µg/mL)
Papp at 5 h, 100 μM [3]: 2.4 ×10⁻⁶ cm/s
CC50 at 72 h [4]: > 20 µM
cell viability / cytotoxicity in HepG2 (in words) (HepG2 cells): not altered; also recorded: no cytotoxicity; also recorded: low cytotoxicity
concentration at 15 min ([5]; female, CF-1, mouse, in vivo, plasma concentration, mean ± SD, gavage 400 mg/kg, 15 min): 45.2 ± 14.8 µM
concentration at 30 min ([5]; female, CF-1, mouse, in vivo, plasma concentration, mean ± SD, gavage 400 mg/kg): 79.4 ± 19.4 µM
concentration at 30 min ([5]; female, CF-1, mouse, in vivo, po, plasma concentrations (range), oral 400 mg/kg, joint range over 5-FI and 5-FI.HCl): 79 to 82 µM
plasma concentrations (range) ([5]; gavage 400 mg/kg, joint range over 5-FI and 5-FI.HCl, 15 and 30 min, listed as 5-FI): 32.6 to 82.3 µM
chemical stability, closed system ([6]; 0 h): 100 ± 0.0%
chemical stability, open system ([6]; 0 h): 100 ± 0.0%
chemical stability, closed system ([6]; 1 h): 97.5 ± 0.1%
chemical stability, open system ([6]; 1 h): 97.5 ± 0.2%
chemical stability, closed system ([6]; 2 h): 95.2 ± 0.0%
chemical stability, open system ([6]; 2 h): 95.4 ± 0.2%
chemical stability, closed system ([6]; 4 h): 93.3 ± 0.1%
chemical stability, closed system ([6]; 6 h): 87.8 ± 0.0%
chemical stability, open system ([6]; 6 h): 88.9 ± 0.2%
chemical stability, closed system ([6]; 24 h): 86.1 ± 0.0%
chemical stability, open system ([6]; 24 h): 89.1 ± 0.2%
chemical stability, closed system ([6]; 48 h): 80.3 ± 0.1%
chemical stability, open system ([6]; 48 h): 85.5 ± 0.1%
cell viability / cytotoxicity in Vero (in words) (Vero cells): not altered; also recorded: no cytotoxicity; also recorded: low cytotoxicity
CC50 at 72 h [7]: > 20 µM
chemical stability pH 1.2 ([8]; 0.1 M HCl): 37.2%
chemical stability pH 9.1 ([8]; 0.1 M NH4HCO3, listed as 5-FI): 99.2%
chemical stability pH 7.4 ([8]; PBS, listed as 5-FI): 58.5%
MIC ([9]; most frequent value of three independent assays): 4.7 µM
MIC ([9]; Mycobacterium tuberculosis, H37RV): 0.63 µg/mL
CLint scaled ([10]; pH 7.4, read-out: metabolic stability Clint (intrinsic clearance)): 9 mL/min/kg
half-life ([10]; pH 7.4, read-out: metabolic stability t1/2 (half-life)): 2.4 h

Source: PMC11292626, “5-Fluoroindole Reduces the Bacterial Burden in a Murine Model of Mycobacterium tuberculosis Infection” (ACS Omega, 2024)
